From patent US20250145585A1, “HETEROCYCLIC INHIBITORS OF IGF-1R FOR TREATMENT OF DISEASE” (HORIZON THERAPEUTICS IRELAND DAC, priority 2023, published 2025)

These compounds were tested against T1, IGF-1R (Homo sapiens, UniProt P08069) (assay: Example B-1: IGF-1R Assay (PC3 cells stimulated with IGF1, AlphaLISA on cell lysates)). Settings: compound two hours, IGF1 200 ng/mL for 30 min, read-out: IC50, Biological Activity against IGF-1R (Table B1).
T1 construct: expressed in transfected cells
Format: cell-based
Description: 50K PC3 cells were seeded on day 1 in 50 μL of media in 96-well plate and incubated overnight at 37° C., 5% CO2. On day 2, all cells were expected to be at 80-90% confluency. Cells were starved for two hours by changing the media to 90 μL of EMEM serum-free media and incubated for 2 hours. Next, cells were treated with 10 μL of 10× concentrated and 3× serially diluted compounds for two hours. It makes 1× of compounds in 100 μL media. This was followed by stimulation of cells with 11×IGF1 for 30 min in 10 μL of serum-free EMEM media at the final concentration of 200 ng/mL.
The media was removed and replaced by 50 μL of 1× lysis buffer from the AlphaLISA kit (with 1× of cOmplete™ protease inhibitor). The plates were sealed, and cells were allowed to lyse for 10 min in the shaker before storing the plate at −20° C. until used. The AlphaLISA assay with processed cell lysates were performed as described in the protocol. Briefly, 10 μL of the undiluted sample were loaded to 384 well Optiplates and 5 μL of the acceptor mix (as described in the AlphaLISA kit) was added to each well. The plates were sealed and briefly vortexed followed by the incubation at RT for 3 hours. In the dark, 5 μL of donor mix was added to each well. All plates were sealed and stored at RT overnight. The plates were read in EnVision reader using standard AlphaLISA settings.
Compound activity was analyzed using CBIS data analysis suite (Cheminnovation, CA). Percentage inhibition was calculated using the following formula: % I-hibition=100%×(1−(mea−RLU of test sample−mean RLU of vehicle control)/(mean-RLU of EC80 control−mean RLU of vehicle control)). The activity for representative examples of the invention is shown in the following table, wherein A: IC50≤500 nM; B: 500 nM<IC50≤2 μM; C: 2 μM<IC50≤10 μM; D: IC50>10 μM.

T1 sequence (P08069 31-1367): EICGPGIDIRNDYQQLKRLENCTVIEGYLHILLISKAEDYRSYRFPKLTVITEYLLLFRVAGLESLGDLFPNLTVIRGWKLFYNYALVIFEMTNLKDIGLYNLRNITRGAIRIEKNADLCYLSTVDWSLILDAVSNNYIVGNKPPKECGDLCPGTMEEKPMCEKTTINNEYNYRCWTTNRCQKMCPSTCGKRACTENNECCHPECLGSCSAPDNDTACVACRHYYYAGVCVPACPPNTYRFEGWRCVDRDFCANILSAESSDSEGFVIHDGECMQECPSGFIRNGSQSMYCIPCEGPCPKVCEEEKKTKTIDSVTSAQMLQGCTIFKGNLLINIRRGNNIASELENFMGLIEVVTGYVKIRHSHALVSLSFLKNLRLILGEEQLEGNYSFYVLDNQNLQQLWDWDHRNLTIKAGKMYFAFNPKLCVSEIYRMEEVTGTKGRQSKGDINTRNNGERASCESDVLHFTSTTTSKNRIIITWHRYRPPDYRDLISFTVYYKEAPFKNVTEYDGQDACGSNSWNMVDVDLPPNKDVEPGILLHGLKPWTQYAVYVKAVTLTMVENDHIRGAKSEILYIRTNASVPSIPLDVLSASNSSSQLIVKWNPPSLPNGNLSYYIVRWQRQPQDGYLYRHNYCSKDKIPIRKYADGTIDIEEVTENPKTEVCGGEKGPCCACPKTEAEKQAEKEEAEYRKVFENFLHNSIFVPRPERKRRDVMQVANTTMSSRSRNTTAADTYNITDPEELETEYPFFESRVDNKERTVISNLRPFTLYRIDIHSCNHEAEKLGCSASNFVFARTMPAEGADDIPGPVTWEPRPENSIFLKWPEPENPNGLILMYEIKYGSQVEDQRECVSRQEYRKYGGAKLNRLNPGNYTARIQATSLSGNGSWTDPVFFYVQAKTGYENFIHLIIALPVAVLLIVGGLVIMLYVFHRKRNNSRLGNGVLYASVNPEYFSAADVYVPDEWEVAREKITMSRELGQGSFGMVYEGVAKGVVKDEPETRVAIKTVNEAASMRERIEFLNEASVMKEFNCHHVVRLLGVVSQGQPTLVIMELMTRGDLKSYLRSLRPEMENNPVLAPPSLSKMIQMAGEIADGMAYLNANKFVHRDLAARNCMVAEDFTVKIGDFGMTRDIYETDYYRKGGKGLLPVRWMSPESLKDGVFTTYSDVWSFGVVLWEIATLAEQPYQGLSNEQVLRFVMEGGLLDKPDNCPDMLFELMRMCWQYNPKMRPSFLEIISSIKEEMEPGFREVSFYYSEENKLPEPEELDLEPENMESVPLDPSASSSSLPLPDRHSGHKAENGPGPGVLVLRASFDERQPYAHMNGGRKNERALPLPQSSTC

| SMILES | IC50 |
| --- | --- |
| COc1cccc(NC(=O)Nc2cc(CN3C(=O)N(c4ccc(SC(F)(F)F)cc4)C(=O)C3(C)C)ccn2)c1 [Compound 364, 1-(4-((5,5-dimethyl-2,4-dioxo-3-(4-((trifluoromethyl)thio)phenyl)imidazolidin-1-yl)methyl)pyridin-2-yl)-3-(3-methoxyphenyl)urea] | ≤ 0.5 µM |
| COc1ccc(NC(=O)Nc2cc(CN3C(=O)N(c4ccc(SC(F)(F)F)cc4)C(=O)C3(C)C)ccn2)cc1 [Compound 363, 1-(4-((5,5-dimethyl-2,4-dioxo-3-(4-((trifluoromethyl)thio)phenyl)imidazolidin-1-yl)methyl)pyridin-2-yl)-3-(4-methoxyphenyl)urea] | ≤ 0.5 µM |
| CC(C)Nc1cc(CN2C(=O)N(c3ccc(I)cc3)C(=O)C2(C)C)ccn1 [Compound 92, 3-(4-iodophenyl)-1-((2-(isopropylamino)pyridin-4-yl)methyl)-5,5-dimethylimidazolidine-2,4-dione] | 0.5 to 2 µM |
| CC1(C)C(=O)N(c2ccc(SC(F)(F)F)cc2)C(=O)N1Cc1ccnc(NC(=O)Nc2cccnc2)c1 [Compound 397, 1-(4-((5,5-dimethyl-2,4-dioxo-3-(4-((trifluoromethyl)thio)phenyl)imidazolidin-1-yl)methyl)pyridin-2-yl)-3-(pyridin-3-yl)urea] | ≤ 0.5 µM |
| CC1(C)C(=O)N(c2ccc(SC(F)(F)F)cc2)C(=O)N1Cc1ccnc(NC(=O)Nc2ccc(Cl)cc2)c1 [Compound 377, 1-(4-chlorophenyl)-3-(4-((5,5-dimethyl-2,4-dioxo-3-(4-((trifluoromethyl)thio)phenyl)imidazolidin-1-yl)methyl)pyridin-2-yl)urea] | 0.5 to 2 µM |
| COC[C@@H](C)Nc1cc(CN2C(=O)N(c3ccc(C(C)(C)C)cc3)C(=O)C2(C)C)ccn1 [Compound 268, (R)-3-(4-(tert-butyl)phenyl)-1-((2-((1-methoxypropan-2-yl)amino)pyridin-4-yl)methyl)-5,5-dimethylimidazolidine-2,4-dione] | ≤ 0.5 µM |
| CC(C)Nc1cc(CN2C(=O)N(c3ccc(C(C)(C)C)cc3)C(=O)C2(C)C)ccn1 [Compound 263, 3-(4-(tert-butyl)phenyl)-1-((2-(isopropylamino)pyridin-4-yl)methyl)-5,5-dimethylimidazolidine-2,4-dione] | ≤ 0.5 µM |
| CC1(C)C(=O)N(c2ccc(SC(F)(F)F)cc2)C(=O)N1Cc1ccnc(NC(=O)Nc2ccncc2)c1 [Compound 398, 1-(4-((5,5-dimethyl-2,4-dioxo-3-(4-((trifluoromethyl)thio)phenyl)imidazolidin-1-yl)methyl)pyridin-2-yl)-3-(pyridin-4-yl)urea] | ≤ 0.5 µM |
| CC(C)(C)c1ccc(N2C(=O)N(Cc3ccnc4[nH]ccc34)C(C)(C)C2=O)cc1 [Compound 4] | ≤ 0.5 µM |
| Cc1ccccc1NC(=O)Nc1cc(CN2C(=O)N(c3ccc(SC(F)(F)F)cc3)C(=O)C2(C)C)ccn1 [Compound 366, 1-(4-((5,5-dimethyl-2,4-dioxo-3-(4-((trifluoromethyl)thio)phenyl)imidazolidin-1-yl)methyl)pyridin-2-yl)-3-(o-tolyl)urea] | ≤ 0.5 µM |
| CC1(C)CNc2ncc(CN3C(=O)N(c4ccc(SC(F)(F)F)cc4)C(=O)C3(C)C)cc21 [Compound 405, 1-((3,3-dimethyl-2,3-dihydro-1H-pyrrolo[2,3-b]pyridin-5-yl)methyl)-5,5-dimethyl-3-(4-((trifluoromethyl)thio)phenyl) imidazolidine-2,4-dione] | 2 to 10 µM |
| Cc1ccc(NC(=O)Nc2cc(CN3C(=O)N(c4ccc(SC(F)(F)F)cc4)C(=O)C3(C)C)ccn2)cc1 [Compound 371, 1-(4-((5,5-dimethyl-2,4-dioxo-3-(4-((trifluoromethyl)thio)phenyl)imidazolidin-1-yl)methyl)pyridin-2-yl)-3-(p-tolyl)urea] | ≤ 0.5 µM |

Next, values leading:

| IC50 | SMILES |
| --- | --- |
| ≤ 0.5 µM | CC1(C)CC(Nc2cc(CN3C(=O)N(c4ccc(C5(C(F)(F)F)CC5)cc4)C(=O)C3(C)C)ccn2)CCO1 (stereo not shown) [Compound 113, 1-((2-((2,2-dimethyltetrahydro-2H-pyran-4-yl)amino)pyridin-4-yl)methyl)-5,5-dimethyl-3-(4-(1-(trifluoromethyl)cyclopropyl)phenyl) imidazolidine-2,4-dione] |
| 2 to 10 µM | Nc1cc(CN2C(=O)N(c3ccc(SC(F)(F)F)cc3)C(=O)C23CCCCC3)ccn1 [Compound 293, 1-((2-aminopyridin-4-yl)methyl)-3-(4-((trifluoromethyl)thio)phenyl)-1,3-diazaspiro[4.5]decane-2,4-dione] |
| ≤ 0.5 µM | CC(C)Nc1cc(CN2C(=O)N(c3ccc(C4(C(F)(F)F)CCC4)cc3)C(=O)C2(C)C)ccn1 [Compound 115, 1-((2-(isopropylamino)pyridin-4-yl)methyl)-5,5-dimethyl-3-(4-(1-(trifluoromethyl)cyclobutyl)phenyl) imidazolidine-2,4-dione] |
| 0.5 to 2 µM | CC1(c2ccc(N3C(=O)N(Cc4ccnc(N)c4)C(C)(C)C3=O)cc2)COC1 [Compound 90, 1-((2-aminopyridin-4-yl)methyl)-5,5-dimethyl-3-(4-(3-methyloxetan-3-yl)phenyl)imidazolidine-2,4-dione] |
| 2 to 10 µM | CC1(C)C(=O)N(c2ccc(-c3nccs3)cc2)C(=O)N1Cc1ccnc(N)c1 [Compound 81, 1-((2-aminopyridin-4-yl)methyl)-5,5-dimethyl-3-(4-(thiazol-2-yl)phenyl)imidazolidine-2,4-dione] |
| ≤ 0.5 µM | CC1(C)C(=O)N(c2ccc([S+]([O-])C(F)(F)F)cc2)C(=O)N1Cc1ccnc(N)c1 (stereo not shown) [Compound 393, 1-((2-aminopyridin-4-yl)methyl)-5,5-dimethyl-3-(4-((trifluoromethyl)sulfinyl)phenyl) imidazolidine-2,4-dione] |
| ≤ 0.5 µM | CC1(C)C(=O)N(c2ccc(SC(F)(F)F)cc2)C(=O)N1Cc1ccnc(NC(=O)NC2COC2)c1 [Compound 308, 1-(4-((5,5-dimethyl-2,4-dioxo-3-(4-((trifluoromethyl)thio)phenyl)imidazolidin-1-yl)methyl)pyridin-2-yl)-3-(oxetan-3-yl)urea] |
| ≤ 0.5 µM | CC1(C)C(=O)N(c2ccc(SC(F)(F)F)cc2)C(=O)N1Cc1ccnc(NCC2CC2)c1 [Compound 311, 1-((2-((cyclopropylmethyl)amino)pyridin-4-yl)methyl)-5,5-dimethyl-3-(4-((trifluoromethyl)thio)phenyl) imidazolidine-2,4-dione] |
| ≤ 0.5 µM | CNC(=O)Nc1cc(CN2C(=O)N(c3ccc(SC(F)(F)F)cc3)C(=O)C2(C)C)ccn1 [Compound 361, 1-(4-((5,5-dimethyl-2,4-dioxo-3-(4-((trifluoromethyl)thio)phenyl)imidazolidin-1-yl)methyl)pyridin-2-yl)-3-methylurea] |
| ≤ 0.5 µM | CC1(C)C(=O)N(c2ccc(SC(F)(F)F)cc2)C(=O)N1Cc1ccnc(Nc2ncccn2)c1 [Compound 399, 5,5-dimethyl-1-((2-(pyrimidin-2-ylamino)pyridin-4-yl)methyl)-3-(4-((trifluoromethyl)thio)phenyl) imidazolidine-2,4-dione] |
| ≤ 0.5 µM | Cc1[nH]c2nccc(CN3C(=O)N(c4ccc(C5(C(F)(F)F)CC5)cc4)C(=O)C3(C)C)c2c1Cl [Compound 10, 1-((3-chloro-2-methyl-1H-pyrrolo[2,3-b]pyridin-4-yl)methyl)-5,5-dimethyl-3-(4-(1-(trifluoromethyl)cyclopropyl)phenyl) imidazolidine-2,4-dione] |
| > 10 µM | CC1(C)C(=O)N(c2ccc(SC(F)(F)F)cc2)C(=O)N1Cc1ccnc(NC2COC2)c1 [Compound 314, 5,5-dimethyl-1-((2-(oxetan-3-ylamino)pyridin-4-yl)methyl)-3-(4-((trifluoromethyl)thio)phenyl) imidazolidine-2,4-dione] |
| ≤ 0.5 µM | CC1(C)C(=O)N(c2ccc(C3(C(F)(F)F)CC3)cc2)C(=O)N1Cc1ccnc(N)c1 [Compound 83, 1-((2-aminopyridin-4-yl)methyl)-5,5-dimethyl-3-(4-(1-(trifluoromethyl)cyclopropyl)phenyl)imidazolidine-2,4-dione] |
| ≤ 0.5 µM | CC(C)NC(=O)Nc1cc(CN2C(=O)N(c3ccc(SC(F)(F)F)cc3)C(=O)C2(C)C)ccn1 [Compound 370, 1-(4-((5,5-dimethyl-2,4-dioxo-3-(4-((trifluoromethyl)thio)phenyl)imidazolidin-1-yl)methyl)pyridin-2-yl)-3-isopropylurea] |
| ≤ 0.5 µM | CC1(C)C(=O)N(c2ccc(C3(C(F)(F)F)CC3)cc2)C(=O)N1Cc1ccnc(NCC(F)F)c1 [Compound 103, 1-((2-((2,2-difluoroethyl)amino)pyridin-4-yl)methyl)-5,5-dimethyl-3-(4-(1-(trifluoromethyl)cyclopropyl)phenyl) imidazolidine-2,4-dione] |
| ≤ 0.5 µM | CCC1(C)C(=O)N(c2ccc(SC(F)(F)F)cc2)C(=O)N1Cc1ccnc(N)c1 (stereo not shown) [Compound 297, 1-((2-aminopyridin-4-yl)methyl)-5-ethyl-5-methyl-3-(4-((trifluoromethyl)thio)phenyl)imidazolidine-2,4-dione] |
